In ChEMBL document CHEMBL3046354, “Design, synthesis, and insecticidal activities of novel analogues of neonicotinoids: replacement of nitromethylene with nitroconjugated system” (2009):

Columns and labels:
Assay type in all cases: functional
Nephotettix cincticeps [1] = experiment: Insecticidal activity against Nephotettix cincticeps (green rice leafhopper) grown on booting stage rice plant stems assessed as insect mortality measured 48 hr post compound treatment by leaf-dip method
Nephotettix cincticeps [2] = experiment: Potency index, ratio of LC50 for imidacloprid to LC50 for test compound against Nephotettix cincticeps (green rice leafhopper) grown on booting stage rice plant stems assessed as insect mortality measured 48 hr post compound treatment by leaf-dip method
Aphis craccivora [3] = experiment: Insecticidal activity against Aphis craccivora (cowpea aphid) infested horsebean plant leaves assessed as insect mortality measured 24 hr post compound treatment by leaf-dip method
Mythimna separata [4] = experiment: Insecticidal activity against Mythimna separata(Oriental armyworm) second-instar larvae infested on compound pre-treated corn leaves assessed as insect mortality measured 48 hr post compound treatment by leaf-dip method
Mythimna separata [5] = experiment: Insecticidal activity against Mythimna separata (Oriental armyworm) second-instar larvae infested on compound pre-treated corn leaves assessed as insect mortality at 500 mg/L measured 48 hr post compound treatment by leaf-dip method
Aphis craccivora [6] = experiment: Insecticidal activity against Aphis craccivora (cowpea aphid) infested horsebean plant leaves assessed as insect mortality at 500 mg/L measured 24 hr post compound treatment by leaf-dip method
Laodelphax striatellus [7] = experiment: Insecticidal activity against Laodelphax striatella (small brown planthopper) grown on booting stage rice plant stems assessed as insect mortality measured 48 hr post compound treatment by leaf-dip method
Laodelphax striatellus [8] = experiment: Potency index, ratio of LC50 for imidacloprid to LC50 for test compound against Laodelphax striatella (small brown planthopper) grown on booting stage rice plant stems assessed as insect mortality measured 48 hr post compound treatment by leaf-dip method

Row | SMILES | LC50 (Nephotettix cincticeps [1]) | RatioLC50 (Nephotettix cincticeps [2]) | LC50 (Aphis craccivora [3]) | LC50 (Mythimna separata [4]) | mortality at 500 µg/mL (Mythimna separata [5]) | mortality at 500 µg/mL (Aphis craccivora [6]) | LC50 (Laodelphax striatellus [7]) | RatioLC50 (Laodelphax striatellus [8])
1 | Cl.O=[N+]([O-])/C(=C\c1ccc(CO)o1)C1=NCCN1Cc1ccc(Cl)nc1 | 1.11 µM | 18.8 | 10.6 µM | 33.9 µM | 100% | 100% |  | 
2 | O=[N+]([O-])/C(=C\c1ccsc1)C1=NCCN1Cc1ccc(Cl)nc1 |  |  |  |  | 0% | 31.9% |  | 
3 | Cc1ccc(/C=C(/C2=NCCN2Cc2ccc(Cl)nc2)[N+](=O)[O-])o1 | 4.05 µM |  | 6.34 µM | 53.1 µM | 100% | 100% |  | 
4 | O=[N+]([O-])/C(=C\c1ccoc1)C1=NCCN1Cc1ccc(Cl)nc1 |  |  | 4.46 µM | 55.3 µM | 100% | 100% |  | 
5 | Cc1ccc(/C=C(/C2=NCCN2Cc2ccc(Cl)nc2)[N+](=O)[O-])s1 |  |  | 3.11 µM | 29.7 µM | 100% | 100% |  | 
6 | O=[N+]([O-])/C(=C\c1ccc([N+](=O)[O-])o1)C1=NCCN1Cc1ccc(Cl)nc1 | 154 µM |  | 11.1 µM | 69.5 µM | 100% | 100% |  | 
7 | O=[N+]([O-])/C(=C\c1ccc(Br)o1)C1=NCCN1Cc1ccc(Cl)nc1 | 2.54 µM |  | 7.3 µM | 39.7 µM | 100% | 100% |  | 
8 | O=[N+]([O-])/C(=C\c1ccc[nH]1)C1=NCCN1Cc1ccc(Cl)nc1 |  |  | 11.2 µM | 39.7 µM | 100% | 100% |  | 
9 | Cc1cc(/C=C(/C2=NCCN2Cc2ccc(Cl)nc2)[N+](=O)[O-])oc1C |  |  | 4.65 µM |  | 0% | 100% |  | 
10 | O=[N+]([O-])/C(=C\c1ccco1)C1=NCCN1Cc1ccccc1 |  |  |  |  | 46.6% | 0% |  | 
11 | O=[N+]([O-])/C(=C\c1ccco1)C1=NCCN1Cc1cnc(Cl)s1 |  |  | 3.5 µM | 107 µM | 100% | 100% |  | 
12 | Cc1ccc(/C=C(/C2=NCCCN2Cc2ccc(Cl)nc2)[N+](=O)[O-])s1 |  |  | 24.6 µM |  | 63.3% | 100% |  | 
13 | O=[N+]([O-])/C(=C\c1cc(Br)cs1)C1=NCCN1Cc1ccc(Cl)nc1 |  |  |  |  | 0% | 0% |  | 
14 | Cl.O=[N+]([O-])/C(=C\c1ccco1)C1=NCCN1Cc1ccc(Cl)nc1 | 1.3 µM | 16 | 3.72 µM | 24.7 µM | 100% | 100% | 7.23 µM | 6.9
15 | CCc1ccc(/C=C(/C2=NCCN2Cc2ccc(Cl)nc2)[N+](=O)[O-])o1 |  |  | 1.82 µM | 97.9 µM | 100% | 100% |  | 
16 | O=[N+]([O-])/C(=C\c1ccc(Cl)o1)C1=NCCCN1Cc1ccc(Cl)nc1 |  |  | 60.9 µM |  | 96.7% | 100% |  | 
17 | Cc1ccc(/C=C(/C2=NCCCN2Cc2ccc(Cl)nc2)[N+](=O)[O-])o1 |  |  | 698 µM |  | 33.3% | 100% |  | 
18 | O=[N+]([O-])/C(=C\c1ccco1)C1=NCCN1Cc1ccc(Cl)cc1 |  |  | 234 µM |  | 67.2% | 98% |  | 
19 | O=[N+]([O-])/C(=C\c1ccc(Cl)o1)C1=NCCN1Cc1ccc(Cl)nc1 |  |  | 7.54 µM | 37.6 µM | 100% | 100% |  | 
20 | Cl.O=[N+]([O-])/C(=C\c1cccs1)C1=NCCN1Cc1ccc(Cl)nc1 | 1.22 µM | 17.1 | 4.23 µM | 52.9 µM | 100% | 100% | 14 µM | 3.6
21 | O=[N+]([O-])/C(=C\c1ccco1)C1=NCCCN1Cc1ccc(Cl)nc1 |  |  | 76.4 µM |  | 16.7% | 100% |  | 
22 | O=[N+]([O-])/C(=C\c1cccs1)C1=NCCCN1Cc1ccc(Cl)nc1 |  |  | 20.5 µM |  | 73.3% | 100% |  | 
23 | O=[N+]([O-])/N=C1\NCCN1Cc1ccc(Cl)nc1 [IMIDACLOPRID] | 20.9 µM |  | 35 µM |  |  | 100% | 49.8 µM | 
